Test results reported in ChEMBL document CHEMBL1149046, “Insect Inhibitory Steroidal Saccharide Esters from Physalis peruviana” (J Nat Prod, 1994).

Columns and labels:
Type in all cases: organism-based
Details in all cases: artemia, in vivo
[1] = Toxicity in brine shrimp at 500 ppm
[2] = Toxicity in brine shrimp at 250 ppm
[3] = Toxicity in brine shrimp at 1000 ppm

CC(=O)OC[C@H]1O[C@@H](OC(=O)/C(C)=C(\C)C[C@@H](O)[C@@H](C)[C@H]2CC[C@H]3[C@@H]4CC=C5C[C@@H](O)C[C@H](O)[C@]5(C)[C@H]4[C@@H](O)C[C@]23C)[C@H](O[C@@H]2O[C@H](CO)[C@@H](O)[C@H](O)[C@H]2O)[C@@H](O)[C@@H]1O
100%: survival at 500 ppm [1] | survival at 250 ppm [2] | survival at 1000 ppm [3]

C/C(C[C@@H](O)[C@@H](C)[C@H]1CC[C@H]2[C@@H]3CC=C4C[C@@H](O)C[C@H](O)[C@]4(C)[C@H]3[C@@H](O)C[C@]12C)=C(/C)C(=O)O[C@@H]1O[C@H](CO)[C@@H](O)[C@H](O)[C@H]1O
100%: survival at 500 ppm [1] | survival at 250 ppm [2] | survival at 1000 ppm [3]

CC(=O)OC[C@H]1O[C@@H](OC(=O)/C(C)=C(\C)C[C@@H](O)[C@@H](C)[C@H]2CC[C@H]3[C@@H]4CC=C5C[C@@H](O[C@@H]6O[C@H](CO)[C@@H](O)[C@H](O)[C@H]6O)C[C@H](O)[C@]5(C)[C@H]4CC[C@]23C)[C@H](O[C@@H]2O[C@H](COC(C)=O)[C@@H](O[C@@H]3O[C@H](CO)[C@@H](O)[C@H](O)[C@H]3O)[C@H](O)[C@H]2O)[C@@H](O)[C@@H]1O
100%: survival at 500 ppm [1] | survival at 250 ppm [2] | survival at 1000 ppm [3]

CC(=O)OC[C@H]1O[C@@H](OC(=O)/C(C)=C(\C)C[C@@H](O)[C@@H](C)[C@H]2CC[C@H]3[C@@H]4CC=C5C[C@@H](O[C@@H]6O[C@H](CO)[C@@H](O)[C@H](O)[C@H]6O)C[C@H](O)[C@]5(C)[C@H]4CC[C@]23C)[C@H](O[C@@H]2O[C@H](CO)[C@@H](O[C@@H]3O[C@H](CO)[C@@H](O)[C@H](O)[C@H]3O)[C@H](O)[C@H]2O)[C@@H](O)[C@@H]1O
100%: survival at 500 ppm [1] | survival at 250 ppm [2] | survival at 1000 ppm [3]

CC(=O)OC[C@H]1O[C@@H](OC(=O)/C(C)=C(\C)C[C@@H](O)[C@@H](C)[C@H]2CC[C@H]3[C@@H]4CC=C5C[C@@H](O[C@@H]6O[C@H](CO)[C@@H](O)[C@H](O)[C@H]6O)C[C@H](O)[C@]5(C)[C@H]4CC[C@]23C)[C@H](O[C@@H]2O[C@H](CO)[C@@H](O)[C@H](O)[C@H]2O)[C@@H](O)[C@@H]1O
100%: survival at 500 ppm [1] | survival at 250 ppm [2] | survival at 1000 ppm [3]

C/C(C[C@@H](O)[C@@H](C)[C@H]1CC[C@H]2[C@@H]3CC=C4C[C@@H](O[C@@H]5O[C@H](CO)[C@@H](O)[C@H](O)[C@H]5O)C[C@H](O)[C@]4(C)[C@H]3CC[C@]12C)=C(/C)C(=O)O[C@@H]1O[C@H](CO)[C@@H](O)[C@H](O)[C@H]1O[C@@H]1O[C@H](CO)[C@@H](O)[C@H](O)[C@H]1O
100%: survival at 500 ppm [1] | survival at 250 ppm [2] | survival at 1000 ppm [3]
